These results are taken from patent EP1984353B1, “AURORA KINASE MODULATORS AND METHOD OF USE” (Amgen, Inc, priority 2006, dated 2007).

In one test the target is T1, AuroraA-TPX2 (Homo sapiens, UniProt O14965).
T1 construct: 20 µL of AuroraA-TPX2 KD GST; GST
T1 sequence (O14965 133-383 limits assumed): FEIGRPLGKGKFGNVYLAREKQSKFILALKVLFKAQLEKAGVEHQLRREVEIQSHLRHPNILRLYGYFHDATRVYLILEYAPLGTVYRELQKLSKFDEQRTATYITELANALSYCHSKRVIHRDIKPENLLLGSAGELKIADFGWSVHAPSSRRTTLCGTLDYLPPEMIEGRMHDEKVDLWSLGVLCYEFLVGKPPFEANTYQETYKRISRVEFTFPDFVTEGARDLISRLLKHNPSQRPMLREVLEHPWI
T1 sequence (Q9ULW0 1-43 partner limits assumed): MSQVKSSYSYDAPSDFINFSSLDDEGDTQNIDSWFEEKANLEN
Briefly: AuroraA-TPX2 Homogeneous Time Resolved Fluorescent (HTRF) kinase assay. It is filed as biochemical. As to conditions: average; given as class symbols; read-out: AurA/TP X2_ IC50_IP (Avg). The method in brief: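 Aurora-A/TPX2 phosphorylates biotinylated PLK peptide (about 1 µM) with ATP for about 120 min in 60 mM HEPES pH 7.5, 10 mM MgCl2, 2 mM DTT. EDTA quench, overnight equilibration with Eu-anti-phosphoPLK antibody and SA-APC; HTRF read at 615/655 nm after 320 nm excitation.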
In general terms: Time-resolved FRET reads energy transfer from a long-lived donor to a nearby acceptor.

The test system of test [1] is phosphorylation of Histone H3. Briefly: HeLa cell 1-hour phospho-histone assay. In kind it is cell-based. As to conditions: Homo sapiens, HeLa, 1 h, HeLa cells, 1 hour; average; given as class symbols; read-out: pHH3 EC50_IP (Avg). In outline:
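HeLa cells were exposed to serially diluted compounds for 1 hour at 37 °C (0.5% DMSO final), then fixed, permeabilized and immunostained for phospho-histone H3 (Ser10) with Hoechst counterstain. High-content imaging scored the percentage of pHH3-positive cells.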

For a further test, the target named is T2, AuroraB (Homo sapiens, UniProt Q96GD4).
T2 construct: 20 µL of AuroraB FL His; His
Briefly: AuroraB Homogeneous Time Resolved Fluorescent (HTRF) kinase assay. It is filed as biochemical. As to conditions: average; given as class symbols; read-out: AurB_ _IC50_IP (Avg). In outline: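 Full-length His-tagged AuroraB (400 pM) phosphorylates 0.1 µM biotinylated Histone H3 with 23 µM ATP (Km(app)) in HEPES pH 7.5 with Mg/Mn, about 90 min. EDTA-quenched; Eu-anti-phosphoHistoneH3 and SA-APC HTRF, 655/615 nm ratio as phosphorylation.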

T2 sequence (Q96GD4 whole entry): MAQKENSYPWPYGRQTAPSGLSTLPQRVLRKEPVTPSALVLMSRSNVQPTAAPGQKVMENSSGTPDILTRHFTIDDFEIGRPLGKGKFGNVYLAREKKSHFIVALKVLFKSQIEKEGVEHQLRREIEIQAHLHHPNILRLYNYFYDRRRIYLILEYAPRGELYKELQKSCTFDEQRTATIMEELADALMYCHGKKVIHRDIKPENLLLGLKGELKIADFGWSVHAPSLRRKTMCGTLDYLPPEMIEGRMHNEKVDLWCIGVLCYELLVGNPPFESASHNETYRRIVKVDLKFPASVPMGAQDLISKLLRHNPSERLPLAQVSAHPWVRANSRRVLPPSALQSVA

With `CCN(CCO)CCCCNc1nccc(-c2cccnc2Oc2ccc(Nc3nnc(-c4ccccc4)cc3C)cc2)n1` [compound 348, 2-(ethyl(4-((4-(2-((4-((4-methyl-6-phenyl-3-pyridazinyl)amino)phenyl)oxy)-3-pyridinyl)-2-pyrimidinyl)amino)butyl)amino)ethanol], the IC50 at AuroraA-TPX2 and at AuroraB was ≤ 0.1 µM each time. In test [1], the EC50 was in the range of 0.1 to 0.5 µM.
Consider `CCN(CCO)CCCNc1nccc(-c2cccnc2Oc2ccc(Nc3nnc(-c4ccccc4)c4ccccc34)cc2)n1` [compound 349, 2-(ethyl(3-((4-(2-((4-((4-phenyl-1-phthalazinyl)amino)phenyl)oxy)-3-pyridinyl)-2-pyrimidinyl)amino)propyl)amino)ethanol], for which the results for the IC50 on AuroraA-TPX2 and on AuroraB were 0.1 to 0.5 µM and ≤ 0.1 µM, respectively. Moreover, the EC50 in test [1] lay within 0.1 to 0.5 µM.
In the case of `CCN(CCO)CCCNc1nccc(-c2cccnc2Oc2ccc(Nc3nnc(-c4ccccc4)cc3C)cc2)n1` [compound 350, 2-(ethyl(3-((4-(2-((4-((4-methyl-6-phenyl-3-pyridazinyl)amino)phenyl)oxy)-3-pyridinyl)-2-pyrimidinyl)amino)propyl)amino)ethanol], the IC50 at AuroraA-TPX2 and at AuroraB was ≤ 0.1 µM in each case. Moreover, the EC50 in test [1] lay within 0.1 to 0.5 µM.
For `Cc1cc(-c2ccccc2)nnc1Nc1ccc(Oc2ncccc2-c2ccncc2)cc1` [compound 417, N-(4-(3,4'-bipyridin-2-yloxy)phenyl)-4-methyl-6-phenyl-3-pyridazinamine], the IC50 on AuroraA-TPX2 and on AuroraB was ≤ 0.1 µM each time. Besides, in test [1], the EC50 was 0.5 to 2.5 µM.
On to `O=S(=O)(O)CCCNc1nccc(-c2cccnc2Oc2ccc(Nc3nnc(-c4ccccc4)c4ccccc34)cc2)n1` [compound 421, 3-((4-(2-((4-((4-phenyl-1-phthalazinyl)amino)phenyl)oxy)-3-pyridinyl)-2-pyrimidinyl)amino)-1-propanesulfonic acid], for which the IC50 at AuroraA-TPX2 and on AuroraB was 0.1 to 0.5 µM throughout. Moreover, in test [1], the EC50 fell in the range of 0.5 to 2.5 µM.
On to `Cc1cc(-c2ccccc2)nnc1Nc1ccc(Oc2ncccc2-c2ccnc(NCCCN3CCN(C)CC3)n2)cc1` [compound 422, 4-methyl-N-(4-((3-(2-((3-(4-methyl-1-piperazinyl)propyl)amino)-4-pyrimidinyl)-2-pyridinyl)oxy)phenyl)-6-phenyl-3-pyridazinamine], for which the IC50 at AuroraA-TPX2 and at AuroraB was ≤ 0.1 µM throughout. For the same molecule, in test [1], the EC50 lay in the range of 0.1 to 0.5 µM.
For `Cc1cc(-c2ccccc2)nnc1Nc1ccc(Oc2ncccc2-c2ccnc(NCCCCN(C)C)n2)cc1` [compound 423, N,N-dimethyl-N'-(4-(2-((4-((4-methyl-6-phenyl-3-pyridazinyl)amino)phenyl)oxy)-3-pyridinyl)-2-pyrimidinyl)-1,4-butanediamine], the IC50 at AuroraA-TPX2 and on AuroraB was ≤ 0.1 µM throughout. Further, the EC50 in test [1] lay in the range of 0.1 to 0.5 µM.
As for `Cc1cc(-c2ccccc2)nnc1Nc1ccc(Oc2ncccc2-c2ccnc(NCCCN3CCCCC3)n2)cc1` [compound 424, 4-methyl-6-phenyl-N-(4-((3-(2-((3-(1-piperidinyl)propyl)amino)-4-pyrimidinyl)-2-pyridinyl)oxy)phenyl)-3-pyridazinamine], the IC50 at AuroraA-TPX2 and at AuroraB was ≤ 0.1 µM each time. Moreover, the EC50 in test [1] fell in the range of 0.1 to 0.5 µM.
Take `Cc1cc(-c2ccccc2)nnc1Nc1ccc(Oc2ncccc2-c2ccnc(NCCCN3CCCC3)n2)cc1` [compound 425, 4-methyl-6-phenyl-N-(4-((3-(2-((3-(1-pyrrolidinyl)propyl)amino)-4-pyrimidinyl)-2-pyridinyl)oxy)phenyl)-3-pyridazinamine]: the IC50 at AuroraA-TPX2 and at AuroraB was ≤ 0.1 µM each time. Moreover, the EC50 in test [1] fell in the range of 0.1 to 0.5 µM.
As for `CCN(CC)CCCNc1nccc(-c2cccnc2Oc2ccc(Nc3nnc(-c4ccccc4)cc3C)cc2)n1` [compound 426, N,N-diethyl-N'-(4-(2-((4-((4-methyl-6-phenyl-3-pyridazinyl)amino)phenyl)oxy)-3-pyridinyl)-2-pyrimidinyl)-1,3-propanediamine], the IC50 at AuroraA-TPX2 and at AuroraB was ≤ 0.1 µM throughout. In addition, the EC50 in test [1] is 0.1 to 0.5 µM.
With `Nc1nccc(-c2cccnc2Oc2ccc(Nc3nnc(-c4ccccc4)cc3C(=O)O)cc2)n1` [compound 433, 3-((4-((3-(2-amino-4-pyrimidinyl)-2-pyridinyl)oxy)phenyl)amino)-6-phenyl-4-pyridazinecarboxylic acid], the IC50 on AuroraA-TPX2 and at AuroraB was 0.5 to 2.5 µM each time. In test [1], the EC50 fell in the range of 0.5 to 2.5 µM.
